This passage reports Kd results from publication PMC9891369, “Deconvoluting binding sites in amyloid nanofibrils using time-resolved spectroscopy” (Chemical Science, 2023).

For experiment [1], the target named is T1, amyloid-β fibrils (Aβ1–40) (Homo sapiens, UniProt P05067).
T1 construct: gene APP; synthetic Aβ1–40, fibrillar
As to the kind of experiment: time-resolved photoluminescence titration, two-site fit. In kind it is binding.

For experiment [2], the target named is T1, amyloid-β fibrils (Aβ1–40). Kind of experiment: time-resolved photoluminescence titration, two-site non-cooperative fit. It counts as binding. The following applies: read-out: Values ^a.

T1 sequence (P05067 672-711): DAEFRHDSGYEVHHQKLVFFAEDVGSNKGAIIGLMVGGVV

For `[Ru+2].c1ccc(-c2ccccn2)nc1.c1ccc(-c2ccccn2)nc1.c1ccc(-c2ccccn2)nc1` [[Ru(bpy)3]^2+], the Kd in experiment [1] amounted to 4.6 µM. On to `[Ru+2].c1ccc(-c2ccccn2)nc1.c1ccc(-c2ccccn2)nc1.c1cnc2c(c1)c1nc3nccnc3nc1c1cccnc12` [[Ru(bpy)2(dpqp)]^2+], for which the Kd in experiment [2] is 2200 ± 500 nM.
